Source: US8580762B2, “Substituted purine and 7-deazapurine compounds” (Epizyme, Inc., priority 2010, dated 2013)
Like-named read-outs stand apart in the source and are kept apart here.

Target: DOT1L(1-416) (Homo sapiens, UniProt Q8TEK3)
Assay: Determination of IC50: DOT1L(1-416) methyltransferase assay, 3H-SAM, oligonucleosome substrate, Flashplate
Assay type: biochemical
Procedure: Determination of IC50. Test compounds were serially diluted 3 fold in DMSO for 10 points and 1 μl was plated in a 384 well microtiter plate. […] 10 μl per well of substrate mix (same assay buffer with 200 nM S-[methyl-^3H]-adenosyl-L methionine, 600 nM of unlabeled […], and 20 nM oligonueleosome) was added to initiate the reaction. Reaction was incubated for 120 minutes at room temperature and quenched with 10 μl per well of 100 μM S-methyl-adenosyl-L methionine. For detection, substrate from 50 μl of reaction was immobilized on a 384 well Streptavidin coated Flashplate (Perkin Elmer) (also coated with 0.2% polyethyleneimine) and read on a Top Count scintillation counter (Perkin Elmer).

[1] = class symbols, read-out: DOT1L IC50

Chain of DOT1L(1-416) (Q8TEK3 1-416): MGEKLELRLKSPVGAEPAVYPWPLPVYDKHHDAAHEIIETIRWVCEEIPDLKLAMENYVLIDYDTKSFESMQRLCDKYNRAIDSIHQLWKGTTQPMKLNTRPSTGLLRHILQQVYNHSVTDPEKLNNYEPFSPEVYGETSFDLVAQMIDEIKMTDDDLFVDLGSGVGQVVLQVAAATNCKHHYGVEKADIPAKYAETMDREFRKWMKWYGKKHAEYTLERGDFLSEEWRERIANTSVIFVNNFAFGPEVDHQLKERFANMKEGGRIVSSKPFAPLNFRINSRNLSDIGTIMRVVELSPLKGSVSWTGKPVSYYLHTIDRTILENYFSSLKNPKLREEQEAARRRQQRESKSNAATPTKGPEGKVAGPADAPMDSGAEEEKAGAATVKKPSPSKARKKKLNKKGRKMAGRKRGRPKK

| Compound | IC50 [1] | IC50 (DOT1L IC50, class symbols) |
| --- | --- | --- |
| CC(C)CN(C[C@H]1C[C@@H](n2ccc3c(N)ncnc32)[C@H](O)[C@@H]1O)C1CC(CCc2nc3cc(C(C)(C)C)ccc3[nH]2)C1 (stereo partly drawn) [Compound 45, (1R,2S,3R,5R)-3-(4-amino-7H-pyrrolo[2,3-d]pyrimidin-7-yl)-5-(((3-(2-(5-(tert-butyl)-1H-benzo[d]imidazol-2-yl)ethyl)cyclobutyl)(isobutyl)amino)methyl)cyclopentane-1,2-diol] | < 100 nM | – |
| CN(C[C@H]1C[C@@H](n2ccc3c(N)ncnc32)[C@H](O)[C@@H]1O)C1CC(CCc2nc3cc(Br)ccc3[nH]2)C1 (stereo partly drawn) [Compound 26, (1R,2S,3R,5R)-3-(4-amino-7H-pyrrolo[2,3-d]pyrimidin-7-yl)-5-(((3-(2-(5-bromo-1H-benzo[d]imidazol-2-yl)ethyl)cyclobutyl)(methyl)amino)methyl)cyclopentane-1,2-diol] | < 100 nM | – |
| CC(C)[N+]([O-])(CC1O[C@@H](n2cnc3c(N)ncnc32)[C@H](O)[C@@H]1O)[C@H]1C[C@H](CCc2nc3cc(C(C)(C)C)ccc3[nH]2)C1 (stereo partly drawn) [Compound 107, (R,1s,3R)-N-(((2R,35,4R,5R)-5-(6-amino-9H-purin-9-yl)-3,4-dihydroxy-tetrahydrofuran-2-yl)methyl)-3-(2-(5-(tert-butyl)-1H-benzo[d]imidazol-2-yl)ethyl)-N-isopropyl-cyclobutanamine oxide] | – | < 100 nM |
| CN(C[C@H]1O[C@@H](n2cnc3c(N)ncnc32)[C@H](O)[C@@H]1O)C1CC(CCc2nc3cc(C4(C#N)CC4)ccc3[nH]2)C1 (stereo partly drawn) [Compound 130, 1-(2-(2-(3-((((2R,3S,4R,5R)-5-(6-amino-9H-purin-9-yl)-3,4-dihydroxytetrahydro-furan-2-yl)methyl)(methyl)amino)cyclobutyl)ethyl)-1H-benzo[d]imidazol-5-yl)cyclo-propanecarbonitrile] | < 100 nM | – |
| CN(C[C@H]1C[C@@H](n2ccc3c(N)ncnc32)[C@H](O)[C@@H]1O)[C@H]1C[C@H](CCc2nc3cc(OC(F)(F)F)ccc3[nH]2)C1 [Compound 57, (1R,2S,3R,5R)-3-(4-amino-7H-pyrrolo[2,3-d]pyrimidin-7-yl)-5-((methyl((1s,3R)-3-(2-(5-(trifluoromethoxy)-1H-benzo[d]imidazol-2-yl)ethyl)cyclobutyl)amino)methyl)cyclopentane-1,2-diol] | < 100 nM | – |
| CC(C)N(C[C@H]1O[C@@H](n2cnc3c(N)ncnc32)[C@H](O)[C@@H]1O)[C@H]1C[C@@H](CCc2nc3cc(C4(C)CCC4)ccc3[nH]2)C1 [Compound 28, (2R,3R,4S,5R)-2-(6-amino-9H-purin-9-yl)-5-((isopropyl((1r,3S)-3-(2-(5-(1-methylcyclobutyl)-1H-benzo[d]imidazol-2-yl)ethyl)cyclobutyl)amino)methyl)tetrahydrofuran-3,4-diol] | < 100 nM | – |
| CN(C[C@H]1O[C@@H](n2cnc3c(N)ncnc32)[C@H](O)[C@@H]1O)[C@H]1C[C@@H](CCc2nc3cc(C4(C)CCC4)ccc3[nH]2)C1 [Compound 30, (2R,3R,4S,5R)-2-(6-amino-9H-purin-9-yl)-5-((methyl((1r,3S)-3-(2-(5-(1-methylcyclobutyl)-1H-benzo[d]imidazol-2-yl)ethyl)cyclobutyl)amino)methyl)tetrahydrofuran-3,4-diol] | < 100 nM | – |
| CC(C)N(C[C@H]1O[C@@H](n2cnc3c(N)ncnc32)[C@H](O)[C@@H]1O)[C@H]1C[C@H](CCc2nc3cc(CC(F)(F)F)ccc3[nH]2)C1 [Compound 123, (2R,3R,4S,5R)-2-(6-amino-9H-purin-9-yl)-5-((isopropyl((1s,3R)-3-(2-(5-(2,2,2-trifluoroethyl)-1H-benzo[d]imidazol-2-yl)ethyl)cyclobutyl)amino)methyl) tetrahydrofuran-3,4-diol] | < 100 nM | – |
| CC(C)(C)c1ccc2[nH]c(CCC3CC(N(C[C@H]4O[C@@H](n5cnc6c(N)ncnc65)[C@H](O)[C@@H]4O)CC(F)(F)F)C3)nc2c1 (stereo partly drawn) [Compound 82, (2R,3R,45,5R)-2-(6-amino-9H-purin-9-yl)-5-(((3-(2-(5-(tert-butyl)-1H-benzo[d]imidazol-2-yl)ethyl)cyclobutyl) (2,2,2-trifluoroethyl)amino)methyl)tetrahydrofuran-3,4-diol] | 100 to 1000 nM | – |
| COCC(C)(C)c1ccc2[nH]c(CC[C@H]3C[C@H](N(C[C@H]4O[C@@H](n5cnc6c(N)ncnc65)[C@H](O)[C@@H]4O)C(C)C)C3)nc2c1 [Compound 121, (2R,3R,4S,5R)-2-(6-amino-9H-purin-9-yl)-5-((isopropyl((1s,3R)-3-(2-(5-(1-methoxy-2-methylpropan-2-yl)-1H-benzo[d]imidazol-2-yl)ethyl)cyclobutyl)amino)methyl) tetrahydrofuran-3,4-diol] | < 100 nM | – |
| CC(C)(C)c1ccc2[nH]c(CC[C@H]3C[C@@H](N(CC4CCC4)C[C@H]4C[C@@H](n5ccc6c(N)ncnc65)[C@H](O)[C@@H]4O)C3)nc2c1 [Compound 42, (1R,2S,3R,5R)-3-(4-amino-7H-pyrrolo[2,3-d]pyrimidin-7-yl)-5-((((1r,3S)-3-(2-(5-(tert-butyl)-1H-benzo[d]imidazol-2-yl)ethyl)cyclobutyl)(cyclobutylmethyl)amino)methyl)cyclopentane-1,2-diol] | < 100 nM | – |
| CC(C)N(C[C@H]1O[C@@H](n2cnc3c(N)ncnc32)[C@H](O)[C@@H]1O)C1CC(CCc2nc3cc(C4(C)CC4)ccc3[nH]2)C1 (stereo partly drawn) [Compound 139, (2R,3R,4S,5R)-2-(6-amino-9H-purin-9-yl)-5-((isopropyl(3-(2-(5-(1-methylcyclopropyl)-1H-benzo[d]imidazol-2-yl)ethyl)cyclobutyl)amino)methyl)tetrahydro-furan-3,4-diol] | < 100 nM | – |
| CN(CC1CC(Cc2nc3cc(C(F)(F)F)ccc3[nH]2)C1)C[C@H]1C[C@@H](n2ccc3c(N)ncnc32)[C@H](O)[C@@H]1O (stereo partly drawn) [Compound 18, (1R,2S,3R,5R)-3-{4-amino-7H-pyrrolo[2,3-d]pyrimidin-7-yl}-5-({methyl[(3-{[5-(trifluoromethyl)-1H-1,3-benzodiazol-2-yl]methyl}cyclobutyl)methyl]amino}methyl)cyclopentane-1,2-diol] | 100 to 1000 nM | – |
| CN(C[C@@H]1C[C@@H](O)[C@H](n2ccc3c(N)ncnc32)C1)C1CC(CCc2nc3cc(Cl)c(C(F)(F)F)cc3[nH]2)C1 (stereo partly drawn) [Compound 17, (1R,2R,4S)-2-(4-amino-7H-pyrrolo[2,3-d]pyrimidin-7-yl)-4-(((3-(2-(5-chloro-6-(trifluoromethyl)-1H-benzo[d]imidazol-2-yl)ethyl)cyclobutyl) (methyl)amino)methyl) cyclopentanol] | 100 to 1000 nM | – |
| CC(C)N(C[C@H]1C[C@@H](n2ccc3c(N)ncnc32)[C@H](O)[C@@H]1O)[C@H]1C[C@H](CCc2nc3cc(OC(F)(F)F)ccc3[nH]2)C1 [Compound 61, (1R,2S,3R,5R)-3-(4-amino-7H-pyrrolo[2,3-d]pyrimidin-7-yl)-5-((isopropyl((1s,3R)-3-(2-(5-(trifluoromethoxy)-1H-benzo[d]imidazol-2-yl)ethyl)cyclobutyl)amino)methyl)cyclopentane-1,2-diol] | 100 to 1000 nM | – |
| CC(C)N(C[C@H]1O[C@@H](n2cnc3c(N)ncnc32)[C@H](O)[C@@H]1O)C1CC(CCc2nc3cc(C4(C#N)CCC4)ccc3[nH]2)C1 (stereo partly drawn) [Compound 117, 1-(2-(2-(3-((((2R,3S,4R,5R)-5-(6-amino-9H-purin-9-yl)-3,4-dihydroxytetrahydro-furan-2-yl)methyl)(isopropyl)amino)cyclobutyl)ethyl)-1H-benzo[d]imidazol-5-yl)cyclo-butanecarbonitrile] | < 100 nM | – |
| CC(C)N(C[C@H]1C[C@@H](n2ccc3c(N)ncnc32)[C@H](O)[C@@H]1O)C1CC(CCc2nc3cc(C(F)(F)F)c(Cl)cc3[nH]2)C1 (stereo partly drawn) [Compound 20, (1R,2S,3R,5R)-3-(4-amino-7H-pyrrolo[2,3-d]pyrimidin-7-yl)-5-(((3-(2-(6-chloro-5-(trifluoromethyl)-1H-benzo[d]imidazol-2-yl)ethyl)cyclobutyl)(isopropyl)amino)methyl)cyclopentane-1,2-diol] | < 100 nM | – |
| CN(C[C@H]1O[C@@H](n2cnc3c(N)ncnc32)[C@H](O)[C@@H]1O)C1CC(CCc2nc3cc(C4COC4)ccc3[nH]2)C1 (stereo partly drawn) [Compound 64, (2R,3R,4S,5R)-2-(6-amino-9H-purin-9-yl)-5-((methyl(3-(2-(5-(oxetan-3-yl)-1H-benzo[d]imidazol-2-yl)ethyl)cyclobutyl)amino)methyl)tetrahydrofuran-3,4-diol] | 100 to 1000 nM | – |
| CC(C)N(C[C@@H]1C[C@@H](O)[C@H](n2ccc3c(N)ncnc32)C1)[C@H]1C[C@H](CCc2nc3cc(C(C)(C)C)ccc3[nH]2)C1 [Compound 104, (1R,2R,4S)-2-(4-amino-7H-pyrrolo[2,3-d]pyrimidin-7-yl)-4-((((1s,3S)-3-(2-(5-(tert-butyl)-1H-benzo[d]imidazol-2-yl)ethyl)cyclobutyl) (isopropyl)amino)methyl)cyclopentanol] | 1000 to 10000 nM | – |
| CN(C[C@H]1O[C@@H](n2ccc3c(N)ncnc32)[C@H](O)[C@@H]1O)[C@H]1C[C@H](CCc2nc3cc(OC(F)(F)F)ccc3[nH]2)C1 [Compound 95, (2R,3R,4S,5R)-2-(4-amino-7H-pyrrolo[2,3-d]pyrimidin-7-yl)-5-((methyl((1s,3R)-3-(2-(5-(trifluoromethoxy)-1H-benzo[d]imidazol-2-yl)ethyl)eyclobutyl)amino)methyl) tetrahydrofuran-3,4-diol] | < 100 nM | – |
| CC(C)N(CC1CC(Cc2nc3cc(C(F)(F)F)ccc3[nH]2)C1)C[C@H]1C[C@@H](n2ccc3c(N)ncnc32)[C@H](O)[C@@H]1O (stereo partly shown) [Compound 15] | 1000 to 10000 nM | – |
| CC(C)CN(C[C@H]1C[C@@H](n2ccc3c(N)ncnc32)[C@H](O)[C@@H]1O)[C@H]1C[C@@H](CCc2nc3cc(C(C)(C)C)ccc3[nH]2)C1 [Compound 53, (1R,2S,3R,5R)-3-(4-amino-7H-pyrrolo[2,3-d]pyrimidin-7-yl)-5-((((1r,3S)-3-(2-(5-(tert-butyl)-1H-benzo[d]imidazol-2-yl)ethyl)cyclobutyl)(isobutyl)amino)methyl)cyclopentane-1,2-diol] | < 100 nM | – |
